From PubChem BioAssay AID248 (DTP/NCI, 2004)
Several values for one entry are separate records, joined by “and”; a condition that tells them apart may be missing. Identical values can stand only once. Toxic doses and inconclusive results are not listed. Cut-off read from the data, not from the text of the source: active = T/C of 150% or more; inactive = T/C below 125%.

Tested on: L1210 leukemia ip in BDF1 mice, survival T/C
Experiment: NCI In Vivo Anticancer Drug Screen. Data for tumor model L1210 Leukemia (intraperitoneal) in B6D2F1 (BDF1) mice
Conditions: endpoint: mean survival time, higher = longer survival
How it was run: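 Transplanted-tumor mice were given test agent; controls received vehicle only. Survival readings from the two groups were divided (treated over control).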

[1] = dose: 100.0 mg/kg/injection, schedule: Q01DX001 (ip), vehicle: saline
[2] = dose: 200.0 mg/kg/injection, schedule: Q01DX001 (ip), vehicle: saline
[3] = dose: 400.0 mg/kg/injection, schedule: Q01DX001 (ip), vehicle: saline
[4] = dose: 100.0 mg/kg/injection, schedule: Q01DX009 (ip), vehicle: Klucel (hydroxypropylcellulose) (HPC)
[5] = dose: 200.0 mg/kg/injection, schedule: Q01DX009 (ip), vehicle: Klucel (hydroxypropylcellulose) (HPC)
[6] = dose: 400.0 mg/kg/injection, schedule: Q01DX009 (ip), vehicle: Klucel (hydroxypropylcellulose) (HPC)
[7] = dose: 50.0 mg/kg/injection, schedule: Q01DX001 (ip), vehicle: saline
[8] = dose: 100.0 mg/kg/injection, schedule: Q04DX003 (ip), vehicle: saline
[9] = dose: 75.0 mg/kg/injection, schedule: Q01DX001 (ip), vehicle: saline
[10] = dose: 150.0 mg/kg/injection, schedule: Q01DX001 (ip), vehicle: saline
[11] = dose: 300.0 mg/kg/injection, schedule: Q01DX001 (ip), vehicle: saline
[12] = dose: 200.0 mg/kg/injection, schedule: Q04DX003 (ip), vehicle: saline
[13] = dose: 400.0 mg/kg/injection, schedule: Q04DX003 (ip), vehicle: saline

Measured: T/C

CN=C(NC1CCCCC1)c1ccc(NC(=O)c2ccc(C(=O)Nc3ccc(C(=NC)NC4CCCCC4)cc3)cc2)cc1
inactive: dose: 1.88 mg/kg/injection, schedule: Q01DX Z (ip), vehicle: saline 102 % of control | dose: 3.75 mg/kg/injection, schedule: Q01DX Z (ip), vehicle: saline 100 % of control | dose: 7.5 mg/kg/injection, schedule: Q01DX Z (ip), vehicle: saline 102 % of control

CC[CH2][Sn]([Br])([CH2]CC)[CH2]CC
inactive: dose: 1.56 mg/kg/injection, schedule: Q01DX009 (ip), vehicle: saline 95 % of control | dose: 3.12 mg/kg/injection, schedule: Q01DX009 (ip), vehicle: saline 102 % of control

COP1(=O)OCC(C)O1 (stereo not given)
inactive: [1] 113 % of control | [2] 102 % of control | [3] 94 % of control

O=C1C(Cl)=C(c2ccccc2)C(=O)C(Cl)=C1c1ccccc1
inactive: dose: 100.0 mg/kg/injection, schedule: Q01DX001 (ip), vehicle: other 93 % of control | dose: 200.0 mg/kg/injection, schedule: Q01DX001 (ip), vehicle: other 88 % of control

COc1cc2c(c(OC)c1OC)-c1ccc(=O)c(N)cc1C(NC(C)=O)CC2 (stereo not given)
inactive: dose: 1.8 mg/kg/injection, schedule: Q01DX Z (ip), vehicle: carboxymethylcellulose (CMC) 97 % of control | dose: 3.7 mg/kg/injection, schedule: Q01DX Z (ip), vehicle: carboxymethylcellulose (CMC) 101 % of control | dose: 7.5 mg/kg/injection, schedule: Q01DX Z (ip), vehicle: carboxymethylcellulose (CMC) 105 % of control | dose: 15.0 mg/kg/injection, schedule: Q01DX Z (ip), vehicle: carboxymethylcellulose (CMC) 105 % of control | dose: 30.0 mg/kg/injection, schedule: Q01DX Z (ip), vehicle: carboxymethylcellulose (CMC) 110 % of control and 112 % of control | dose: 60.0 mg/kg/injection, schedule: Q01DX Z (ip), vehicle: carboxymethylcellulose (CMC) 114 % of control and 122 % of control | dose: 240.0 mg/kg/injection, schedule: Q01DX Z (ip), vehicle: carboxymethylcellulose (CMC) 121 % of control

O=C1c2ccccc2C(F)(F)c2ccccc21
inactive: [4] 110 % of control | [5] 100 % of control | [6] 101 % of control

Nc1nc(N)c(N=Nc2ccc(S(=O)(=O)Nc3ccccn3)cc2)c(=O)[nH]1
inactive: [1] 94 % of control | [2] 94 % of control | [3] 94 % of control

O=C(c1ccc(Cl)cc1)c1nonc1C(=O)c1ccc(Cl)cc1
inactive: dose: 100.0 mg/kg/injection, schedule: Q01DX001 (ip), vehicle: Klucel (hydroxypropylcellulose) (HPC) 100 % of control | [4] 98 % of control | dose: 200.0 mg/kg/injection, schedule: Q01DX001 (ip), vehicle: Klucel (hydroxypropylcellulose) (HPC) 96 % of control | [5] 95 % of control | dose: 400.0 mg/kg/injection, schedule: Q01DX001 (ip), vehicle: Klucel (hydroxypropylcellulose) (HPC) 100 % of control | [6] 106 % of control

O=NN(Cc1ccccc1)Cc1ccccc1
inactive: [7] 104 % of control | [1] 102 % of control | [2] 98 % of control | [3] 104 % of control

OC1CCCC2CCC[N-]C12.OC1CCCC2CCC[N-]C12.[O]=[V][OH] (stereo not given)
inactive: dose: 24.0 mg/kg/injection, schedule: Q01DX015 (ip), vehicle: carboxymethylcellulose (CMC) 105 % of control | dose: 25.0 mg/kg/injection, schedule: Q04DX003 (ip), vehicle: saline 93 % of control | dose: 36.0 mg/kg/injection, schedule: Q01DX015 (ip), vehicle: carboxymethylcellulose (CMC) 105 % of control | [7] 100 % of control | dose: 50.0 mg/kg/injection, schedule: Q04DX003 (ip), vehicle: saline 93 % of control | dose: 54.0 mg/kg/injection, schedule: Q01DX015 (ip), vehicle: carboxymethylcellulose (CMC) 102 % of control | [8] 95 % of control

FC(F)(F)c1cccc(NC(=S)SCc2ccc(Cl)cc2)c1
inactive: dose: 15.0 mg/kg/injection, schedule: Q04DX003 (ip), vehicle: saline 102 % of control | dose: 30.0 mg/kg/injection, schedule: Q04DX003 (ip), vehicle: saline 102 % of control | dose: 60.0 mg/kg/injection, schedule: Q04DX003 (ip), vehicle: saline 102 % of control | dose: 100.0 mg/kg/injection, schedule: Q04DX002 (ip), vehicle: Klucel (hydroxypropylcellulose) (HPC) 87 % of control | dose: 200.0 mg/kg/injection, schedule: Q04DX002 (ip), vehicle: Klucel (hydroxypropylcellulose) (HPC) 112 % of control

O=C(O)CC(C(=O)O)C1CCCC1 (stereo not given)
inactive: [9] 102 % of control | [10] 94 % of control | [11] 92 % of control

C(#[C][Sb]([C]#Cc1ccccc1)[C]#Cc1ccccc1)c1ccccc1
inactive: [8] 98 % of control | [12] 106 % of control | [13] 102 % of control

O=[N+]([O-])c1cccc(P(=O)(c2cccc([N+](=O)[O-])c2)c2cccc([N+](=O)[O-])c2)c1
inactive: dose: 100.0 mg/kg/injection, schedule: Q01DX009 (ip), vehicle: saline 101 % of control | [8] 93 % of control | dose: 200.0 mg/kg/injection, schedule: Q01DX009 (ip), vehicle: saline 101 % of control | [12] 104 % of control | dose: 400.0 mg/kg/injection, schedule: Q01DX009 (ip), vehicle: saline 95 % of control | [13] 106 % of control

CC1COCC(C)N1C1=C(Cl)C(=O)c2ccccc2C1=O (stereo not given)
inactive: dose: 12.5 mg/kg/injection, schedule: Q01DX001 (ip), vehicle: carboxymethylcellulose (CMC) 98 % of control | dose: 25.0 mg/kg/injection, schedule: Q01DX001 (ip), vehicle: carboxymethylcellulose (CMC) 98 % of control

CCCCOB1OC(c2ccccc2)(c2ccccc2)c2ccccc2C(c2ccccc2)(c2ccccc2)O1
inactive: dose: 100.0 mg/kg/injection, schedule: Q01DX001 (ip), vehicle: carboxymethylcellulose (CMC) 91 % of control | dose: 200.0 mg/kg/injection, schedule: Q01DX001 (ip), vehicle: carboxymethylcellulose (CMC) 91 % of control | dose: 400.0 mg/kg/injection, schedule: Q01DX001 (ip), vehicle: carboxymethylcellulose (CMC) 98 % of control

O=C1OC2(c3ccc(O)cc3Oc3cc(O)ccc32)C2C3C=CC(C3)C12 (stereo not given)
inactive: dose: 50.0 mg/kg/injection, schedule: Q01DX009 (ip), vehicle: Klucel (hydroxypropylcellulose) (HPC) 98 % of control | [4] 104 % of control | [8] 98 % of control | [5] 97 % of control | [12] 92 % of control | [13] 95 % of control

Cc1ccc(S/C(=C/c2ccccc2)C(N)=O)cc1
inactive: dose: 200.0 mg/kg/injection, schedule: Q04DX003 (ip), vehicle: Klucel (hydroxypropylcellulose) (HPC) 93 % of control | dose: 400.0 mg/kg/injection, schedule: Q04DX003 (ip), vehicle: Klucel (hydroxypropylcellulose) (HPC) 95 % of control

O=C(O)C1C=CCC2C(=O)OC(=O)C12 (stereo not given)
inactive: [9] 102 % of control | [10] 102 % of control | [11] 96 % of control

C[C@]12CCC(=O)C=C1CC[C@@H]1[C@@H]2[C@@H](O)C[C@@]2(C)[C@H]1CC[C@]2(O)C(=O)COC(=O)c1ccc([N+](=O)[O-])cc1Cl
inactive: dose: 100.0 mg/kg/injection, schedule: Q01DX001 (sc), vehicle: steriod suspending solution 101 % of control | dose: 200.0 mg/kg/injection, schedule: Q01DX001 (sc), vehicle: steriod suspending solution 101 % of control | dose: 400.0 mg/kg/injection, schedule: Q01DX001 (sc), vehicle: steriod suspending solution 97 % of control

O=C(Nc1cc(Cl)c(Cl)cc1Cl)Nc1cc(Cl)ccc1Oc1ccc(Cl)cc1S(=O)(=O)O
inactive: dose: 50.0 mg/kg/injection, schedule: Q04DX003 (ip), vehicle: alcohol 97 % of control | dose: 100.0 mg/kg/injection, schedule: Q04DX003 (ip), vehicle: alcohol 103 % of control | dose: 200.0 mg/kg/injection, schedule: Q04DX003 (ip), vehicle: alcohol 103 % of control

C=CCN(C(=O)C=C)C1CCCCC1
inactive: [7] 98 % of control | [1] 101 % of control

CC(=O)Nc1c(Cl)c(Cl)c2c(c1Cl)Cc1cc(Cl)c(Cl)cc1-2
inactive: dose: 50.0 mg/kg/injection, schedule: Q01DX009 (ip), vehicle: acetone 93 % of control | dose: 50.0 mg/kg/injection, schedule: Q04DX003 (ip), vehicle: acetone 94 % of control | dose: 100.0 mg/kg/injection, schedule: Q01DX009 (ip), vehicle: acetone 95 % of control | dose: 100.0 mg/kg/injection, schedule: Q04DX003 (ip), vehicle: acetone 93 % of control | dose: 200.0 mg/kg/injection, schedule: Q01DX009 (ip), vehicle: acetone 97 % of control | dose: 200.0 mg/kg/injection, schedule: Q04DX003 (ip), vehicle: acetone 93 % of control

COC1=C(NCCc2ccc(OC)c(OC)c2)C(=O)C(OC)=C(NCCc2ccc(OC)c(OC)c2)C1=O
inactive: [1] 109 % of control | [2] 98 % of control | [3] 96 % of control
